Assay results from patent US11633497B2, “Anti-c-Met antibody drug conjugates” (AbbVie Inc., priority 2021, dated 2023).
Like-named read-outs stand apart in the source and are kept apart here.

Assays:
[1] = system: A375 cells (malignant melanoma); experiment: Cell proliferation, CellTiter-Glo luminescence, A375; assay type: cell-based; conditions: Homo sapiens, A-375, read-out: TOP1i Compound Potency EC50, A375
Excerpt: Proliferation of Calu-6 cells (lung adenocarcinoma) and A375 cells (malignant melanoma) were quantified using CellTiter-Glo® luminescence.

[2] = system: Calu-6 cells (lung adenocarcinoma); experiment: Cell proliferation, CellTiter-Glo luminescence, Calu-6; assay type: cell-based; conditions: Homo sapiens
Description: The effect of TOP1i drugs on cell viability was assessed by monitoring ATP presence for metabolically active cells. Proliferation of Calu-6 cells (lung adenocarcinoma) and A375 cells (malignant melanoma) were quantified using CellTiter-Glo® luminescence.

EC50 ([2]; Calu-6 cell viability, CellTiter-Glo, read-out: TOP1i Compound Potency EC50, Calu-6)	SMILES	EC50 [1]	EC50 ([2]; Calu-6, read-out: TOP1i Compound Potency EC50, Calu-6)
–	CC[C@@]1(O)C(=O)OCc2c1cc1n(c2=O)Cc2c-1nc1cc3c(cc1c2C12CC(N)(C1)C2)OCO3 [Example 1G, (7S)-14-(3-aminobicyclo[1.1.1]pentan-1-yl)-7-ethyl-7-hydroxy-2H,10H-[1,3]dioxolo[4,5-g]pyrano[3′,4′:6,7]indolizino[1,2-b]quinoline-8,11(7H,13H)-dione]	0.5 nM	0.57 nM
6.58 nM	CCc1c2c(nc3ccc(O)cc13)-c1cc3c(c(=O)n1C2)COC(=O)[C@]3(O)CC [SN-38, reference compound]	–	–
